# Legend:
# Type in all cases: cell-based
# TRPV4 [1] = target: T1, TRPV4 (Homo sapiens, UniProt Q9HBA0); assay: fura-2 Ca2+ imaging dose-response in CCD […] cells (endogenous TRPV4), blocked by RN1734
# TRPV4 [2] = target: T1, TRPV4; assay: fura-2 Ca2+ imaging dose-response in CCD […] cells (endogenous TRPV4)
# TRPV4 [3] = target: T1, TRPV4; assay: inhibition of GSK101 ([…])-induced Ca2+ response, fura-2 imaging in CCD […] cells (endogenous TRPV4)
# T1 sequence (Q9HBA0 whole entry): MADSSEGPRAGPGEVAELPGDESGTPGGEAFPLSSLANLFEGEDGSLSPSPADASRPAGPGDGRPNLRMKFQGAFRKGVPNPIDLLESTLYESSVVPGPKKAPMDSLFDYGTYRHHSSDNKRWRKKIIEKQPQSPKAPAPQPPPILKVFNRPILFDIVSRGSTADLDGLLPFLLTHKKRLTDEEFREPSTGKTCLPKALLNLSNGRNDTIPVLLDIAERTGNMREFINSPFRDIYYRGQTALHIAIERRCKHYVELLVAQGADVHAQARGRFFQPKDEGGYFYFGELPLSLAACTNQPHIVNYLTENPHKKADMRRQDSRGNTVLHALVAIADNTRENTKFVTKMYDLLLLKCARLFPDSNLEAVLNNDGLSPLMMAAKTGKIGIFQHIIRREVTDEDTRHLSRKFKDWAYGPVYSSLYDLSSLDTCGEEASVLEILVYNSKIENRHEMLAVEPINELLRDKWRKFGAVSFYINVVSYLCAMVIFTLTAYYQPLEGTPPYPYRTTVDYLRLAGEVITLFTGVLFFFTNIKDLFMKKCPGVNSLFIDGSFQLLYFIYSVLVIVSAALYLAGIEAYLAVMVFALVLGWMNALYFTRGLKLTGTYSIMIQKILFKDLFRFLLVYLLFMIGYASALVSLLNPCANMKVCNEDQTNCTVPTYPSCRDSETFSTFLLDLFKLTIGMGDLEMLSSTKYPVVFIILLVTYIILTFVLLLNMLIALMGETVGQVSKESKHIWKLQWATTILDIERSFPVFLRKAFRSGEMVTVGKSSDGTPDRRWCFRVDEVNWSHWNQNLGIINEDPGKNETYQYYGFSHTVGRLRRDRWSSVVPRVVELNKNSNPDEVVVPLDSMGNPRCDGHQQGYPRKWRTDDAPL
compound,measurement,setting,value
"CCCCC/C=C\C/C=C\CC1OC1C/C=C\CCCC(=O)OC (stereo not drawn) [8,9-EET methylestel]",EC50,TRPV4 [1],0.111 µM
"CC(C)C[C@H](NC(=O)c1cc2ccccc2s1)C(=O)N1CCN(C(=O)[C@H](CO)NS(=O)(=O)c2ccc(Cl)cc2Cl)CC1 [GSK101, N-((1S)-1-{[4-((2S)-2-{[(2,4-dichlorophenyl)sulfonyl]amino}-3-hydroxypropanoyl)-1-piperazinyl]carbonyl}-3-methylbutyl)-1-benzothiophene-2-carboxamide]",EC50,TRPV4 [2],0.231 µM
CC(C)NCCN(C(C)C)S(=O)(=O)c1ccc(Cl)cc1Cl [RN1734],IC50,TRPV4 [3],0.000703 µM

# Reference: article PMC6203352, “Involvement of VNUT-exocytosis in transient receptor potential vanilloid 4-dependent ATP release from gastrointestinal epithelium” (PLoS ONE, 2018)
